Values joined by “and” are separate entries in the source; they are usually repeats but may differ in a detail not shown here. Equal values may be shown once.
Columns and labels:
skin = assay: Moisturization analysis (Scalar moisture checker); type: in vivo, human; settings: skin of the hand, 20° C., 60% RH
Procedure: The topical composition samples of the present disclosure and the commercial silicones (cyclopentasiloxane, dimethicone) were applied on a skin patch and the moisture content was analyzed for a duration of 8 hrs. The test was conducted on 3 volunteers. Three areas were marked on the skin of the hand. The composition was applied by rubbing in a circular direction for a period of two minute on the marked areas. The third area was kept blank. The readings were taken after five minutes of drying by Scaler Moisture Checker. The temperature of the room was kept at 20° C. and humidity was maintained at 60% RH. The moisture analysis was done using moisture checker from Scalar Impressive works. Scalar moisture checker works on the principle of capacitance to measure the permittivity of skin. […] The checker was pressed on the desired area perpendicularly to the skin and was held for a few seconds. […] Moisture level Content of 45.1 and above represent a very high moisture level, when moisture level is between 39.1-45.0 it is high normal, between 27.1-39.0 is mid normal, between 22.1-27.0 is low normal, between 12.1 to 22.0 is low and below 12.1 is very low moisture level. A graph of time after application and the moisture level content was plotted for each composition.

[1] = test system: Murine fibroblast cell line (3T3); assay: Skin reactivity analysis by agar diffusion assay; type: cell-based; settings: 3T3 cells, 24 hours exposure
Procedure: Skin reactivity analysis was carried out for the topical composition samples by agar diffusion assay. Murine fibroblast cell line (3T3) cells were seeded onto 60 mm tissue culture grade plastic Petri dishes and incubated for 24 hrs. After 24 hrs the media was replaced by a layer of 1% agar. Stock solution of 100 mg/ml of reference standard was prepared in sterile phosphate buffered saline (PBS) and tested at 10% (100 mg/ml). 5 μl of reference standard was loaded on to 6 mm sterile Whatman filter paper discs which were placed on the agar layer. Neat topical composition sample was used for testing. Approximately 5 μl of the topical composition sample was loaded on to 6 mm sterile Whatman filter paper discs which were placed on the agar layer. Sterile PBS was used as the negative control. Positive and negative controls were run concurrently. After an exposure of 24 hours to the samples, the assays were terminated by the addition of MTT (3-[4,5-dimethylthiazol-2-yl]-2,5-diphenyltetrazolium bromide; Thiazolyl blue) (Sigma M 5655) and incubated overnight in the dark. The following day, the cells were observed under the microscope and checked for the presence of crystals under the area of sample loading. The sample causing cell death was indicated by a clear zone of inhibition. The colour was allowed to develop overnight and the zone of inhibition was measured. The readings of the test samples were then scored based on comparisons with the positive and negative controls in compliance with the USP (U.S. Pharmacopoeia) grades for the agar diffusion test (Table 2).

## C[Si]1(C)O[Si](C)(C)O[Si](C)(C)O[Si](C)(C)O[Si](C)(C)O1 [Cyclopentasiloxane, cyclopentasiloxane]
skin; 8 hours after application
  moisture content retained until 8 hours after application: 21%
skin; after application
  moisture content after application: 23%

## CCCCCCCCCCCCOS(=O)(=O)[O-].[Na+] [Positive Control, sodium dodecyl sulphate]
[1]
  Reactivity: Severe (Zone extends greater than 1.0 cm beyond specimen)
[1]; sample neat (100% concentration), Expt 1-3, sulphate
  Zone of Inhibition, mean per experiment: 1.08 cm and 1.14 cm and 1.20 cm
[1]; sample neat (100% concentration), reference standard 10% (100 mg/ml), Expt 1-3, sulphate
  Zone of Inhibition, individual readings: 1.05 cm and 1.03 cm and 1.17 cm and 1.13 cm and 1.07 cm and 1.23 cm and 1.20 cm and 1.18 cm and 1.22 cm
[1]; sample neat (100% concentration), listed as positive control, sulphate
  Zone of Inhibition, Mean ± SD of three independent experiments: 1.14±0.06 cm
[1]; sample neat (100% concentration), sulphate
  Zone of Inhibition, Mean ± SD of three independent experiments: 1.14 ± 0.06 cm
